Assay [1] concerns the target T1, human LAT-1 (Homo sapiens (Human), UniProt Q01650). In words: Inhibition of [14C]L-leucine uptake into human LAT-1 stably expressing HEK293 cell line (uptake buffer, 1 min). The class given is cell-based. Conditions: HEK293 human LAT-1 stably expressing cells; Na+-free HBSS pH7.4; [14C]L-leucine or alanine 1 μM, uptake 1 min; read-out: LAT-1 inhibitory activity/IC50. The text has this:
(§1) 1) LAT-1 Inhibitory Activity and LAT-2 Inhibitory Activity Inhibitory Effect on Uptake of Amino Acid into Human LAT-1 Stably Expressing Cell Line and LAT-2 Stably Expressing Cell Line
(§2) Expression vector each expressing a gene was inserted using Lipofectamine 2000 (Invitrogen) to cultured cell line HEK293 cell derived from human fetus renal cell. The resistant strains were selected using G418, and among them, the strains showing human LAT-1- or LAT-2-specific uptake of amino acid were established as stably expressing cell lines, respectively.
(§3) The above-mentioned stably expressing cells were plated on a 24-well collagen plate at 1.2×10^5 cells/well, and, after 48 hr, the cells were washed (×3) with uptake buffer ([…] Hank's balanced salt solution (HBSS) pH7.4) kept at 37° C. Each test compound (0.1, 1, 3, 10, 30, 100, 300 and 1000 μM) was added thereto, and the mixture was kept at 37° C. for 3 min. [^14C]L-leucine or alanine (1 μM) was added thereto, and [^14C]L-leucine or alanine (1 μM) was uptaken for 1 min. The mixture was washed with ice-cold uptake buffer (×3). Then, the cells were dissolved in 0.1M NaOH aqueous solution (500 μL), and the protein concentration was measured using the 20 μL of the solution. The uptaken radioactivity was measured using the remaining solution. The measured results were corrected with the protein concentration. The results were evaluated as inhibitory capacity 50%, i.e., IC50, which corresponds to the concentration inhibiting 50% of the cellular uptake of amino acid.

Another assay has as its target human LAT-2 (Homo sapiens (Human), UniProt Q9UHI5). The experiment in a line: Inhibition of [14C] amino acid uptake into human LAT-2 stably expressing HEK293 cell line (uptake buffer, 1 min). Conditions: HEK293 human LAT-2 stably expressing cells; Na+-free HBSS pH7.4; [14C]L-leucine or alanine 1 μM, uptake 1 min; read-out: LAT-2 inhibitory activity/IC50. The class given is cell-based.
Source text: as §1, §2, §3

Assay [2] concerns subcutaneous tumor derived from human pancreatic cancer cell line MIAPaCa-2. In words: Enlargement inhibitory effect on subcutaneous tumor derived from MIAPaCa-2 in nude mice. The class given is in vivo, nude mice (BALB/cAJc1-nu). To be noted: 1 mg/kg orally once a day for 7 days; female nude mice; tumor volume after 15 to 21 days vs control group. On the procedure:
Experimental Example 2 Biological Activity Evaluation Test Enlargement Inhibitory Effect on Subcutaneous Tumor Derived from Human Pancreatic Cancer Cell Line MIAPaCa-2 in Nude Mice
Tumor tissue (0.1 g) derived from MIAPaCa-2 cell was subcutaneously transplanted into female nude mice (6-week old, BALB/cAJc1-nu), which the tumor tissue was formed in different nude mice in advance. 5% MC suspension was prepared from saline and each test compound (1 mg/kg), and it was orally-administered once a day for 7 days from 2 days after transplant. The time-dependent change of the tumor volume was measured by measuring (major axis×minor axis×minor axis)/2 of the tumor volume (weight) according to the method in Sawa, Jun Wu, Takaaki Akaike, and Hiroshi Maeda (2000) Cancer research 60, 666-671.
The tumor volume after 15 to 21 days administration of compound administration group was compared with those of control group, and the tumor growth inhibitory ratio was calculated. The anti-tumor action was evaluated as tumor growth inhibitory ratio.

In another assay the test system is MIAPaCa-2 cells. The experiment in a line: Growth inhibitory effect on human pancreatic cancer cell line MIAPaCa-2 (Trypan-Blue method). The assay is classed as cell-based. Conditions: MIA PaCa-2, 0.2% DMSO, counted every 24 hr for 5 days. On the procedure:
2) Growth Inhibitory Effect on Human Pancreatic Cancer Cell Line MIAPaCa-2
MIAPaCa-2 cells were plated on a 12-well plate at 2000 cells/well, and cultured for 48 hr without addition of test compound. 48 hr after the beginning of the culture, each test compound (0.03, 0.1, 0.3, 1, 3, 6, 10, 30, 100 μM) was added thereto in the presence of 0.2% DMSO. The cells were counted every 24 hr for 5 days, and the inhibitory effect on the MIAPaCa-2 cell growth was observed by Trypan-Blue method. The results were evaluated as inhibitory capacity 50%, i.e., IC50, which corresponds to the concentration inhibiting 50% of the cell growth inhibitory activity.

The target in assay [3] is T1, human LAT-1. In words: Inhibition of [14C]L-leucine uptake into human LAT-1 stably expressing cells in culture solution (MEM medium, 120 min). The class given is cell-based. To be noted: MEM medium containing non-essential amino acid, [14C]L-leucine uptake 120 min, read-out: LAT-1 inhibitory activity/IC50.
Protocol: The above-mentioned human LAT-1 stably expressing cells were plated on a 24-well collagen plate at 1.2×10^5 cells/well, and, after 48 hr, the cells were washed (×3) with new culture solution (MEM medium (containing non-essential amino acid)) kept at 37° C. Each test compound (0.1, 1, 3, 10 and 30 μM) was added thereto, and the mixture was kept at 37° C. for 3 min. [^14C]L-leucine was added thereto, and [^14C]L-leucine was uptaken in the culture solution for 120 min. The mixture was washed (×3) with ice-cold buffer (Na^2+-free Hank's balanced salt solution (HBSS) pH7.4). Then, the cells were dissolved in 0.1M NaOH aqueous solution (500 μL), and the protein concentration was measured using the 20 μL of the solution. The uptaken radioactivity was measured using the remaining solution. The measured results were corrected with the protein concentration. The results were evaluated as inhibitory capacity 50%, i.e., IC50, which corresponds to the concentration inhibiting 50% of the cellular uptake of amino acid.

Structures can show the parent of a compound that is named as a salt.

T1 sequence (Q01650 whole entry): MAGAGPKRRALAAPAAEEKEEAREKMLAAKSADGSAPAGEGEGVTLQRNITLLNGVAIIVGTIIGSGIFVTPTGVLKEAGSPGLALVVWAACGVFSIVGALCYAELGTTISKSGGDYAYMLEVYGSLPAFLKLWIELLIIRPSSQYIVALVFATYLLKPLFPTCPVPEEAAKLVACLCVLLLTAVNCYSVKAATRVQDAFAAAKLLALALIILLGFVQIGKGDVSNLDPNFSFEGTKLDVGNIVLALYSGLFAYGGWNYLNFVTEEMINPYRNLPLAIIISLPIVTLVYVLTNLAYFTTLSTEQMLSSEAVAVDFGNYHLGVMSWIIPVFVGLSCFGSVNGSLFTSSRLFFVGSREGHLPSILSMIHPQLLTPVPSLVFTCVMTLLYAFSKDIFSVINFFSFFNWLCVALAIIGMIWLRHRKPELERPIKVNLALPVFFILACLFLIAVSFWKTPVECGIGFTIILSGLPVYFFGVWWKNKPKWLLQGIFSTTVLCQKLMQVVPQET
T1 sequence (P08195 102-630 partner): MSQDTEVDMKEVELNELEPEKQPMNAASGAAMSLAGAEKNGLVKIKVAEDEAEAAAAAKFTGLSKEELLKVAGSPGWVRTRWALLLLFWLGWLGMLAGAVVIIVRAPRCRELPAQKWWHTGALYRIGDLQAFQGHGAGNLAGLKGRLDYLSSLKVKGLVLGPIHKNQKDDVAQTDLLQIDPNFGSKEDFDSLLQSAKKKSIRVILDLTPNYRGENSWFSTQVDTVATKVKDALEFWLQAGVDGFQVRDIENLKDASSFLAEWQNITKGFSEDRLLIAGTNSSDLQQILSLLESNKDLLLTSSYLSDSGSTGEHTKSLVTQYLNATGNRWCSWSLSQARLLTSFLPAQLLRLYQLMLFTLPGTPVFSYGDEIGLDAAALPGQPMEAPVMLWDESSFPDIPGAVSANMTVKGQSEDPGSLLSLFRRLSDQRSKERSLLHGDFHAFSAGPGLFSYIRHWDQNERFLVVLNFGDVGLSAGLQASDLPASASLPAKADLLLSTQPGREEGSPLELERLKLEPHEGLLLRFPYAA
Chain of human LAT-2 (Q9UHI5 whole entry): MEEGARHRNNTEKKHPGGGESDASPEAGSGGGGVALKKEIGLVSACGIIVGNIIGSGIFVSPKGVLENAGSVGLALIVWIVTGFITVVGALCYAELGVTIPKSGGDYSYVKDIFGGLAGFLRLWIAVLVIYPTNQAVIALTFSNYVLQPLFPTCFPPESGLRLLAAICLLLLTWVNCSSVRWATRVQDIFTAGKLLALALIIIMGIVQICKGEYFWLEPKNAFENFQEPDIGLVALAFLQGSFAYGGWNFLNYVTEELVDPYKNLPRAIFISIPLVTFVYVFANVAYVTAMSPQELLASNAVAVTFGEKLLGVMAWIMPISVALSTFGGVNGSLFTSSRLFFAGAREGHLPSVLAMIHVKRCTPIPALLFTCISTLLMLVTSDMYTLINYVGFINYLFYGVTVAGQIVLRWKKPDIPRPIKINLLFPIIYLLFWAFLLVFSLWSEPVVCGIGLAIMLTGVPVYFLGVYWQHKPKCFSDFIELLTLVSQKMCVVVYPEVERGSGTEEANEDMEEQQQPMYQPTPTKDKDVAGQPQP
Chain of human LAT-2 (P08195 102-630 partner): as the sequence (P08195 102-630 partner) above

For `NCCCCC(Oc1ccc(C(F)(F)F)cc1)c1ccccc1` (stereo not drawn) [Example 1, 5-phenyl-5-[4-(trifluoromethyl)phenoxy]pentan-1-amine], the IC50 at human LAT-1 [1] worked out at 57.5 µM; at human LAT-2 it was 146 µM.
On to `NCCCCC(Oc1ccc(C(F)(F)F)cc1)c1ccccc1.O=C(O)/C=C/C(=O)O` (stereo not drawn) [Example 2, 5-phenyl-5-[4-(trifluoromethyl)phenoxy]pentan-1-amine fumarate], for which the “tumor growth inhibitory ratio” value in assay [2] was 80.5%.
Take `NCCCCCC(Oc1ccc(C(F)(F)F)cc1)c1ccccc1` (stereo not drawn) [Example 6, 6-phenyl-6-[4-(trifluoromethyl)phenoxy]hexan-1-amine]: the IC50 on human LAT-1 [1] worked out at 89.1 µM; at human LAT-2 it was 128 µM.
The matching figures for `NCCCCC(Oc1ccc(C(F)(F)F)cc1)c1cccc(F)c1` (stereo not drawn) [Example 12]: 63 µM and 100 µM.
The matching figures for `CCC(C)c1ccc(OC(CCCCN)c2ccccc2)cc1` (stereo not drawn) [Example 26]: 57 µM and 253 µM.
The matching figures for `NCCCCC(Oc1ccc(C(F)(F)F)c(F)c1)c1ccccc1` (stereo not drawn) [Example 29]: 76 µM and 218 µM.
`NCCCCC(Oc1ccc(OC(F)(F)F)cc1)c1ccccc1` (stereo not drawn) [Example 44]: the IC50 at human LAT-1 [1] was determined as 39.4 µM; on human LAT-2, 169 µM.
As for `NCCCCC(Oc1ccc(C(F)(F)F)cc1)c1cccs1` (stereo not drawn) [Example 48, 5-(thiophen-2-yl)-5-[4-(trifluoromethyl)phenoxy]pentan-1-amine], the IC50 on human LAT-1 [1] was 56.6 µM; at human LAT-2, 357 µM.
The matching figures for `NCCCCC(Oc1ccc(OC(F)(F)F)cc1)c1cccs1` (stereo not drawn) [Example 50]: 123 µM and 313 µM.
On to `CCC(C)c1ccc(OC(CCCCN)c2cccs2)cc1` (stereo not drawn) [Example 51], for which the IC50 on human LAT-1 [1] and on human LAT-2 was 261 µM throughout.
As to `NCCCCC(Oc1ccc(OC(F)(F)F)c(F)c1)c1cccs1` (stereo not drawn) [Example 53], the IC50 was determined as 146 µM on human LAT-1 [1] and 258 µM at human LAT-2.
Consider `NCCCCC(Oc1ccc(C(F)(F)F)c(F)c1)c1cccs1` (stereo not drawn) [Example 54], for which the IC50 worked out at 177 µM on human LAT-1 [1] and 300 µM at human LAT-2.
Turning to `NCCCC[C@@H](Oc1ccc(C(F)(F)F)cc1)c1ccccc1` [Example 66, (R)-5-phenyl-5-[4-(trifluoromethyl)phenoxy]pentan-1-amine fumarate], the IC50 at human LAT-1 [1] turned out to be 62.8 µM; on human LAT-2, 194 µM; in the assay on MIAPaCa-2 cells, 0.17 µM.
For `NCCCC[C@H](Oc1ccc(C(F)(F)F)cc1)c1ccccc1` [Example 67, (S)-5-phenyl-5-[4-(trifluoromethyl)phenoxy]pentan-1-amine fumarate] the same measures were 96.2 µM, 207 µM and 4.16 µM.
For `NCCCC[C@@H](Oc1ccc(C(F)(F)F)c(F)c1)c1ccccc1.O=C(O)/C=C/C(=O)O` [Example 68, (R)-5-[3-fluoro-4-(trifluoromethyl)phenoxy]-5-phenylpentan-1-amine fumarate], the IC50 was 36.4 µM at human LAT-1 [1], 156 µM at human LAT-2 and 0.43 µM with MIAPaCa-2 cells. For the same compound, the “tumor growth inhibitory ratio” value in assay [2] worked out at 84.4%.
`NCCCC[C@H](Oc1ccc(C(F)(F)F)c(F)c1)c1ccccc1.O=C(O)/C=C/C(=O)O` [Example 69, (S)-5-[3-fluoro-4-(trifluoromethyl)phenoxy]-5-phenylpentan-1-amine fumarate]: the IC50 came out at 69 µM at human LAT-1 [1], 53 µM at human LAT-2 and 0.83 µM with MIAPaCa-2 cells. Besides, the “tumor growth inhibitory ratio” value in assay [2] is 85.5%.
For the compound `NCCCC[C@@H](Oc1ccc(OC(F)(F)F)cc1)c1ccccc1.O=C(O)/C=C/C(=O)O` [Example 70, (R)-5-phenyl-5-[4-(trifluoromethoxy)phenoxy]pentan-1-amine fumarate], the IC50 on human LAT-1 [1] was 36.6 µM; at human LAT-2 it was 131 µM; at human LAT-1 [3], 10.4 µM; in the assay with MIAPaCa-2 cells it was 0.11 µM. The “tumor growth inhibitory ratio” value in assay [2] came out at 90.2%.
Regarding `NCCCC[C@H](Oc1ccc(OC(F)(F)F)cc1)c1ccccc1.O=C(O)/C=C/C(=O)O` [Example 71, (S)-5-phenyl-5-[4-(trifluoromethoxy)phenoxy]pentan-1-amine fumarate], the IC50 on human LAT-1 [1] stood at 244 µM; on human LAT-2 it was 131 µM; in the assay on MIAPaCa-2 cells, 3.36 µM. In assay [2], the “tumor growth inhibitory ratio” value was 85.9%.
With `NCCCCC(Oc1ccc(C(F)(F)F)c(F)c1)c1ccccc1.O=C(O)/C=C/C(=O)O` (stereo not drawn) [Example 72], the “tumor growth inhibitory ratio” value in assay [2] is 84.4%.
Consider `NCCCCC(Oc1ccc(OC(F)(F)F)cc1)c1ccccc1.O=C(O)/C=C/C(=O)O` (stereo not drawn) [Example 73], for which the “tumor growth inhibitory ratio” value in assay [2] turned out to be 83.6%.

The values are drawn from US9771316B2, “Phenoxyalkylamine compound” (OSAKA UNIVERSITY, priority 2013, dated 2017).
